Two molecules from ChEMBL document CHEMBL6083204, “Synthesis of a celastrol derivative as a cancer stem cell inhibitor through regulation of the STAT3 pathway for treatment of ovarian cancer” (RSC Med Chem, 2024) can be followed below.

A short description of series [1]: Cytotoxicity against human IOSE80 cells assessed as inhibition of cell growth incubated for 72 hrs by MTT assay. The series is classed as toxicity, cell-based.
Another series concerns SK-OV-3. In words: Antiproliferative activity against human SK-OV-3 cells assessed as inhibition of cell growth incubated for 72 hrs by MTT assay. Format: functional, cell-based. The following applies: SK-OV-3, 72 h. (In general: Tetrazolium dyes change colour on reduction, which living cells bring about.)
A further series deals with A2780. The experiment in a line: Antiproliferative activity against human A2780 cells assessed as inhibition of cell growth incubated for 72 hrs by MTT assay. Format: functional, cell-based. The settings on record: A2780, 72 h.
Series [2] in a line: Selectivity index, ratio of IC50 for cytotoxicity against human IOSE80 cells to IC50 for cytotoxicity against human SK-OV-3 cells.
In another series the test system is OVCAR-3. The experiment in a line: Antiproliferative activity against human OVCAR-3 cells assessed as inhibition of cell growth incubated for 72 hrs by MTT assay. Format: functional, cell-based. The settings on record: OVCAR-3, 72 h.

On to `COc1cccc2c1C(=O)c1c(O)c3c(c(O)c1C2=O)C[C@@](O)(C(=O)CO)C[C@@H]3O[C@H]1C[C@H](N)[C@H](O)[C@H](C)O1` [DOXORUBICIN], for which the half-inhibitory concentration (IC50) (as a rule, the point on the concentration scale where inhibition reaches its midpoint) at 72 h in series [1] came out at 760 nM. In addition, the IC50 came to 1680 nM in the series with SK-OV-3 and 4.18 µM in the series on A2780.
For the molecule `CC1=C(O)C(=O)C=C2C1=CC=C1[C@@]2(C)CC[C@@]2(C)[C@@H]3C[C@](C)(C(=O)O)CC[C@]3(C)CC[C@]12C` [CELASTROL], the “Ratio IC50” value in series [2] is given as 1.87. The IC50 in the series on OVCAR-3 was found to be 840 nM; in the series with SK-OV-3, 1270 nM; with A2780, 1.99 µM. In series [1], the IC50 at 72 h came to 2380 nM.
